Source: patent US20240165165A1, “PHARMACEUTICAL COMPOSITIONS AND THEIR METHODS OF USE” (The Trustees of Indiana University, priority 2021, published 2024)

What was measured:
[1] = system: 4T1.2 mammary tumor cells; experiment: MTT viability assay; assay type: cell-based, mouse
From the text: (§1) In vitro assays. Cellular viability was examined using an MTT assay (Invitrogen, Carlsbad, CA, USA) with the procedure previously described, as well as an EdU assay with a fluorescence-based cell proliferation kit (Thermo-Fisher, Waltham, MA, USA). The recombinant proteins employed included Filamin A, Pkm, Pdia3, Tpm4, Anxa2, Eef1a1, Cts1, Nme2, Dcn, Calr, Aldoa, Calm1, Tpm3, Ppib, Myh9, Ywhae, Hspa5, Hsp90aa1 (MBS962910, MBS8249600, MBS2010131, MBS145304, MBS2009095, MBS2033168, MBS143355, MBS145412, MBS2557309, MBS2009125, MBS8248528, MBS2018713, MBS144696, MBS2009092, MBS717396, MBS143242, MBS806904, MBS142709; MyBioSource, San Diego, CA, USA), Actin Gamma 1, Actn4, Hspa8, Vimentin (H00000071-P01, H00000081-P01, NBP1-30278, NBP2-35139; Novus, Littleton, CO, USA), and Hsp90ab1 (OPCA05157; Aviva system biology, San Diego, CA, USA). A TRANSWELL® chamber assay was conducted to detect invasive cellular motility, and a wound-healing scratch assay was utilized to evaluate 2-dimensional migratory behavior. The overexpression of Akt, Lrp5, β-catenin, Snail, Calr, and Ppib was conducted by transfecting plasmids (#10841, #115907, #31785, #31697, #51161, #36123; Addgene, Cambridge, MA, USA). […]

[2] = system: 4T1.2 mammary tumor cells; experiment: TRANSWELL invasion assay; assay type: cell-based, mouse
From the text: as §1

[3] = system: 4T1.2 mammary tumor cells; experiment: EdU proliferation assay; assay type: cell-based, mouse
Description: EdU assay. Approximately 2,000 cells were seeded in 96-well plates on day 1. CM was added on day 2 and cellular proliferation was examined using a fluorescence-based cell proliferation kit (CLICK-IT™ EDU ALEXA FLUOR™ 488 Imaging Kit; Thermo-Fisher, Waltham, MA, USA) on day 4. After fluorescent labeling, the number of fluorescently labeled cells was counted and the ratio to the total number of cells was determined.
as §1, with “USA).” for “USA). A TRANSWELL® chamber assay was conducted to detect invasive cellular motility, and a wound-healing scratch assay was utilized to evaluate 2-dimensional migratory behavior. The overexpression of Akt, Lrp5, β-catenin, Snail, Calr, and Ppib was conducted by transfecting plasmids (#10841, #115907, #31785, #31697, #51161, #36123; Addgene, Cambridge, MA, USA).”

4T1.2 cells = experiment: Western blot of proteins in treated tumor cells; assay type: cell-based, mouse; details: for tumor-promoting genes (Lrp5, MMP9, Runx2, TGFβ, Snail) in 4T1.2 cells: Western blot
Description: (§2) Western blot analysis and protein array analysis. Western blot analysis was conducted using the procedure previously described. Antibodies against Lrp5, Runx2, Snail, TGFβ, sclerostin, Calr, p-eIF2α, eIF2α (Cell Signaling, Danvers, MA, USA), LIF, Trail (Novus Biologicals, Centennial, CO, USA), MMP9, NFATc1, cathepsin K (Santa Cruz Biotechnology, Dallas, TX, USA), p53, CXCL2, Ppib (Invitrogen, Carlsbad, CA, USA), Hsp90ab1 (Abcam, Cambridge, UK), and β-actin (Sigma, Saint Louis, MO, USA) were used. A proteome profiler mouse XL cytokine array kit (R&D Systems, Minneapolis, MN, USA) was also employed, and the expression of 111 cytokines and chemokines in MSC-derived CM was determined.

EO771 cells = experiment: Western blot of proteins in treated tumor cells; assay type: cell-based, mouse
Description: Western blot analysis and mass spectrometry. Western blot analysis was conducted using known procedures. Antibodies were used against ANXA1, β-catenin, caspase 3, Lrp5, Lrp6, Runx2, Sclerostin, Snail, TGFβ, NFATc1, cathepsin K (Cell Signaling, Danvers, MA, USA), DMP1, ANXA6, CXCL5 (Abcam, Cambridge, MA, USA), M-CSF, MMP9, OPN, TPM4 (Santa Cruz, Dallas, TX, USA), WISP1 (R&D systems, Minneapolis, MN, USA), β-actin (Sigma, Saint Louis, MO, USA), LIMA1, Trail (Novus, Centennial, CO, USA), p53 and CXCL1 (Invitrogen, Carlsbad, California, USA), and DSP (ProteinTech, Rosemont, IL, USA). The expression levels of Sclerostin and Lrp5 in CM were detected by ELISA (My BioSource, San Diego, CA, USA). Proteins from A5 osteocyte CM, Y4 osteocyte CM, and osteoclast control CM (RAW264.7 cells) were analyzed by the HF Hybrid Quadrupole Orbitrap mass spectrometry. Among 549 identified proteins, 49 proteins presented higher expression levels in A5 CM than Y4 CM and control CM. […]
Western blot analysis and protein array analysis. […] A proteome profiler mouse XL cytokine array kit (R&D Systems, Minneapolis, MN, USA) was also employed, and the expression of 111 cytokines and chemokines in MSC-derived CM was determined. […]

[4] = system: phosphorylated Akt in MSCs; experiment: Western blot of phosphorylated Akt; assay type: cell-based, mouse
Description: as §2

[5] = system: EO771 mammary tumor cells in the lung of C57BL/6 mice; experiment: In vivo extravasation assay; set-up: species or system mouse; details: co-injection into tail vein, 48 h
Description: To evaluate the effects of CMs for tumor invasion, the in vivo extravasation assay was conducted. C57BL/6 female mice (5 mice per group) received an injection of 50 μl of fluorescently labeled EO771 cells (1.0×10^6 cells) into the lateral tail veins. Fluorescently labeled EO771 cells were prepared by culturing them with a green fluorescent dye (#4705, Sartorius, Gottingen, Germany) for 20 min at 37° C. Cells were then centrifuged with 1000 rpm for 5 min for harvesting the pellet. The pellet was re-suspended in PBS (placebo group) or osteocyte-derived CM (A5 CM group). Mice will be sacrificed after 48 h for histologically identifying extravascular tumor cells in the lung.

[6] = system: human breast cancer fragments in the inside of the skull; experiment: Skull diffusion assay, tissue fragments; assay type: cell-based; details: agent in the outside of the skull
Description: (§3) Skull diffusion assay. The usage of human breast cancer tissues was approved by the Indiana University Institutional Review Board, and informed consent for research use was obtained from all patients. The experiment was performed following Indiana University's human research protection program policies. A breast cancer tissue (— 1 g; ER/PR+, HER2+), received from Simon Cancer Center Tissue Procurement Core, was manually fragmented with a scalpel into small pieces. Mouse skulls were isolated and rinsed with PBS. They were placed in a 24-well plate with the head top facing the well surface and tumor cells or breast cancer tissue fragments were grown. The well was filled with the control medium or osteocyte-derived CM. Fluphenazine (Sigma-Aldrich), a dopamine receptor antagonist that suppresses the growth of mammary tumor cells, was employed as a positive control to suppress tumor growth.

[7] = system: EO771 cells in the inside of the skull; experiment: Skull diffusion assay, MTT-based viability; assay type: cell-based, mouse; details: agent in the outside of the skull
Description: as §3

[8] = Estimation of the diffusion coefficient through the skull; assay type: physicochemical, mouse
From the text: Estimation of the diffusion coefficient through the skull. Suppose that the two aqueous reservoirs are separated by a skull and the solute (albumin) in the first reservoir with the volume V1 is transferred to the second reservoirs with the volume V2. When the volume of the skull is negligible, the change in the solute in the first reservoir is approximated, using the quasi-steady-state flux, N according to Eq. (1) and Eq. (2):
Where t=time, and c 1 (t) and c 2 (t)=concentrations in the first and second reservoirs, respectively, A=skull surface area, D=diffusion coefficient through the skull, and L=skull thickness. Since the decrease in the first reservoir is equivalent to the gain in the second reservoir, Eq. (3) is arrived at:
If the initial concentrations are c1(t=0)=c0 and c2 (t=0)=0, the concentration c1 is predicted as a function of time according to Eq. (4):
The diffusion coefficient of albumin in the skull was estimated as 3.30×10^−8 cm^2/s from the slope (0.7157) of the best-fit line of Eq. (4) in FIG. 36B. Of note, V1=265 μl, V2=65 μl, c0=10 μg/μ1, A=188 mm^2, and L=60 μm.

[9] = system: 4T1.2 mammary tumor cells; experiment: Scratch-based migration assay; assay type: cell-based, mouse
Description: Two-dimensional motility assay. A wound-healing scratch motility assay was performed to evaluate 2-dimensional cell motility. Approximately 4×10^5 cells were seeded in 12-well plates. After cell attachment, a plastic pipette tip was used to scratch a gap on the cell layer. Floating cells were removed, and CM was added. Images of the cell-free scratch zone were obtained via an inverted microscope at 0 h, and the areas newly occupied with cells were determined 24-48 h after scratching. The areas were quantified with IMAGE J (National Institutes of Health, Bethesda, MD, USA).
In vitro assays. Cellular viability was examined using an MTT assay (Invitrogen, Carlsbad, CA, USA) with the procedure previously described, as well as an EdU assay with a fluorescence-based cell proliferation kit (Thermo-Fisher, Waltham, MA, USA). […]

Ppib: recombinant peptidylprolyl isomerase B
MTT-based viability of 4T1.2 cells [1]: Significant reduction | TRANSWELL invasion of 4T1.2 cells [2]: significantly inhibited | EdU-based proliferation of 4T1.2 cells [3]: significantly inhibited | phosphorylation level of eIF2α in 4T1.2 cells (4T1.2 cells): elevated | tumor-promoting genes (Lrp5, MMP9, Runx2, TGFβ, Snail) in 4T1.2 cells (4T1.2 cells): suppressed

TGFβ
tumor-promoting/tumorigenic proteins (Lrp5, MMP9, Runx2, TGFβ, Snail, IL1β etc.) in EO771 cells (EO771 cells): increased

Oc1cc2c(cc1O)C(Cc1cccc3ccccc13)NCC2 (stereo not shown) [YS49]
phosphorylated Akt in MSCs [4]: elevated

COc1cccc(-c2cc(NCc3ccc4c(c3)OCO4)nc(N)n2)c1 [BML284]
number of EO771 tumor cells in the lung [5]: Reduction

OCCN1CCN(CCCN2c3ccccc3Sc3ccc(C(F)(F)F)cc32)CC1 [Fluphenazine]
size of human breast cancer fragments in the inside of the skull [6]: significantly shrunk | viability of EO771 tumor cells in the inside of the skull [7]: significantly decreased

albumin: bovine serum albumin, solute for skull diffusion
diffusion coefficient across the skull relative to aqueous solution, fold smaller [8]: approximately 20 fold | diffusion coefficient across the skull ([8]; murine skull, estimated from slope of Eq. (4)): 3.30×10^−8 cm^2/s

Hsp90aa1: Hsp90aa1 recombinant protein
tumor-promoting genes (Lrp5, MMP9, Runx2, TGFβ, Snail) in 4T1.2 cells (4T1.2 cells): did not alter

Hsp90ab1: recombinant heat shock protein 90 alpha family class B member 1
MTT-based viability of 4T1.2 cells [1]: Significant reduction | scratch-based migration of 4T1.2 cells [9]: reduced | tumor-promoting genes (Lrp5, MMP9, Runx2, TGFβ, Snail) in 4T1.2 cells (4T1.2 cells): downregulated
